Results: patent US5672715A, “Herbicidal substituted 3-aryl-pyrazoles” (Monsanto Company, priority 1995, dated 1997)
Values joined by “and” are separate entries in the source; they are usually repeats but may differ in a detail not shown here. Equal entries are not always repeated.

Key:
Assay type in all cases: in vivo
Giant Foxtail [1] = test: post-emergence herbicide test; conditions: Setaria faberi, post-emergence, 0.25 lb/A; read-out: % plant inhibition
Source text: (§1) Topsoil was placed in aluminum pans having holes in the bottom and compacted to a depth of 1.3 to 1.6 cm from the top of the pan. A predetermined number of seeds of each of several dicotyledonous and monocotyledonous annual plant species and/or vegetative propagules for the perennial plant species were placed on the soil and pressed into the soil surface. The seeds and/or vegetative propagules were covered with soil and leveled. The pans were then placed on a bench in the greenhouse and watered either from overheard irrigation or by subirrigation as needed. After the plants reach the desired age (two to three weeks), each pan, is removed individually to a spraying chamber and sprayed by means of an atomizer, operating at a spray pressure of 170.3 kPa […] at the application rates noted. In the spray solution was an amount of an emulsifying agent mixture to give a spray solution or suspension which contains about 0.4% by volume of the emulsifier. The spray solution or suspension contained a sufficient amount of the candidate chemical in order to give application rates of the active ingredient corresponding to those shown in Tables 4 and 5, while applying a total amount of solution or suspension equivalent to 1870 L/Ha (200 gallons/acre). […] The post-emergent herbicidal activity shown in these tables is the percent inhibition of each plant species. Testing with warm season and cool season plants is shown in tables 4a-4d and […], respectively.

Barnyardgrass [2] = test: post-emergence herbicide test; conditions: Echinochloa crus-galli, post-emergence, 0.25 lb/A; read-out: % plant inhibition
Source text: as §1

Green Foxtail [3] = test: post-emergence herbicide test; conditions: Setaria viridis, post-emergence, 0.25 lb/A; read-out: % plant inhibition
Source text: as §1

Morning Glory [4] = test: post-emergence herbicide test; conditions: Ipomoea, post-emergence, 0.25 lb/A; read-out: % plant inhibition
Source text: as §1

Downy Brome [5] = test: post-emergence herbicide test; conditions: Bromus tectorum, post-emergence, 0.25 lb/A; read-out: % plant inhibition
Source text: as §1

Cocklebur [6] = test: post-emergence herbicide test; conditions: Xanthium strumarium, post-emergence, 0.25 lb/A; read-out: % plant inhibition
Source text: as §1

Birdseye Speedwell [7] = test: post-emergence herbicide test; conditions: post-emergence, 0.25 lb/A; read-out: % plant inhibition
Source text: as §1

Seedling Johnsongrass [8] = test: post-emergence herbicide test; conditions: Sorghum halepense, post-emergence, 0.25 lb/A; read-out: % plant inhibition
Source text: as §1

Soybean = test: post-emergence herbicide test; conditions: Glycine max, post-emergence, 0.25 lb/A; read-out: % plant inhibition
Source text: as §1

Blackgrass [9] = test: post-emergence herbicide test; conditions: Alopecurus myosuroides, post-emergence, 0.25 lb/A; read-out: % plant inhibition
Source text: as §1

Corn [10] = test: post-emergence herbicide test; conditions: Zea mays, post-emergence, 0.25 lb/A; read-out: % plant inhibition
Source text: as §1

Wild Oats [11] = test: post-emergence herbicide test; conditions: Avena fatua, post-emergence, 0.25 lb/A; read-out: % plant inhibition
Source text: as §1

Common Chickweed [12] = test: post-emergence herbicide test; conditions: post-emergence, 0.25 lb/A; read-out: % plant inhibition
Source text: as §1

Velvetleaf [13] = test: post-emergence herbicide test; conditions: Abutilon theophrasti, post-emergence, 0.25 lb/A; read-out: % plant inhibition
Source text: as §1

Bedstraw Catchweed [14] = test: post-emergence herbicide test; conditions: Galium aparine, post-emergence, 0.25 lb/A; read-out: % plant inhibition
Source text: as §1

Rape [15] = test: post-emergence herbicide test; conditions: post-emergence, 0.25 lb/A; read-out: % plant inhibition
Source text: as §1

Wheat [16] = test: post-emergence herbicide test; conditions: Triticum aestivum, post-emergence, 0.25 lb/A; read-out: % plant inhibition
Source text: as §1

Giant Foxtail [17] = test: pre-emergence herbicide test; conditions: 0.25 lb/A; for inhibition at 280.212 g/ha: Setaria faberi, pre-emergence, read-out: % plant inhibition
Experimental: (§2) Topsoil was placed in an aluminum pan and compacted to a depth of 1.3 to 1.6 cm from the top of the pan. On the top of the soil was placed a predetermined number of seeds of each of several monocotyledonous and dicotyledonous annual plant species and/or vegetative propagules of various perennial plant species. The pan was then level filled with a cover layer of topsoil to which was added a known amount of active ingredient either prior to or after application of the cover layer. The active ingredient was dissolved or suspended in an organic solvent, e.g., acetone, or water as carrier for application to the cover layer. The pans were moved to a greenhouse bench where they were thereafter watered from below as needed to give adequate moisture for germination and growth. In some cases, an initial overhead irrigation of 1/4 inch of water was applied immediately after treatment.
(§3) Approximately 14 days after seeding and treating, the pans were observed and the results (% inhibition) were recorded.
(§4) The tables below summarize the results of the pre-emergence herbicidal activity tests of compounds of this invention tested with warm season plants (Tables 2a-2d) and cool season plants (Tables 3a and 3b). The herbicidal rating shown in these tables is the percent inhibition of each plant species. The plant species usually regarded as weeds are identified in the tables by single letter headings and crop species identified by two letter headings both headings being above the columns in accordance with the following legend: […]

Barnyardgrass [18] = test: pre-emergence herbicide test; conditions: 0.25 lb/A; for inhibition at 280.212 g/ha: Echinochloa crus-galli, pre-emergence, read-out: % plant inhibition
Experimental: as §2, §3, §4

Green Foxtail [19] = test: pre-emergence herbicide test; conditions: Setaria viridis, pre-emergence; 0.25 lb/A; read-out: % plant inhibition
Experimental: as §2, §3, §4

Morning Glory [20] = test: pre-emergence herbicide test; conditions: 0.25 lb/A
Experimental: as §2, §3, §4

Downy Brome [21] = test: pre-emergence herbicide test; conditions: Bromus tectorum, pre-emergence, 0.25 lb/A; read-out: % plant inhibition
Experimental: as §2, §3, §4

Cocklebur [22] = test: pre-emergence herbicide test; conditions: 0.25 lb/A; for inhibition at 280.212 g/ha: Xanthium strumarium, pre-emergence, read-out: % plant inhibition
Experimental: as §2, §3, §4

Birdseye Speedwell [23] = test: pre-emergence herbicide test; conditions: pre-emergence, 0.25 lb/A; read-out: % plant inhibition
Experimental: as §2, §3, §4

Seedling Johnsongrass [24] = test: pre-emergence herbicide test; conditions: 0.25 lb/A; for inhibition at 280.212 g/ha: Sorghum halepense, pre-emergence, read-out: % plant inhibition
Experimental: as §2, §3, §4

Blackgrass [25] = test: pre-emergence herbicide test; conditions: Alopecurus myosuroides, pre-emergence, 0.25 lb/A; read-out: % plant inhibition
Experimental: as §2, §3, §4

Wild Oats [26] = test: pre-emergence herbicide test; conditions: Avena fatua, pre-emergence, 0.25 lb/A; read-out: % plant inhibition
Experimental: as §2, §3, §4

Common Chickweed [27] = test: pre-emergence herbicide test; conditions: pre-emergence, 0.25 lb/A; read-out: % plant inhibition
Experimental: as §2, §3, §4

Velvetleaf [28] = test: pre-emergence herbicide test; conditions: 0.25 lb/A; for inhibition at 280.212 g/ha: Abutilon theophrasti, pre-emergence, read-out: % plant inhibition
Experimental: as §2, §3, §4

Bedstraw Catchweed [29] = test: pre-emergence herbicide test; conditions: Galium aparine, pre-emergence, 0.25 lb/A; read-out: % plant inhibition
Experimental: as §2, §3, §4

Rape [30] = test: pre-emergence herbicide test; conditions: pre-emergence, 0.25 lb/A; read-out: % plant inhibition
Experimental: as §2, §3, §4

Wheat [31] = test: pre-emergence herbicide test; conditions: Triticum aestivum, pre-emergence, 0.25 lb/A; read-out: % plant inhibition
Experimental: as §2, §3, §4

Corn [32] = test: pre-emergence herbicide test; conditions: 0.25 lb/A; for inhibition at 280.212 g/ha: Zea mays, pre-emergence, read-out: % plant inhibition
Experimental: as §2, §3, §4

Structure (SMILES)	inhibition at 280.212 g/ha (Giant Foxtail [1])	inhibition at 280.212 g/ha (Barnyardgrass [2])	inhibition at 280.212 g/ha (Green Foxtail [3])	inhibition at 280.212 g/ha (Morning Glory [4])	inhibition at 280.212 g/ha (Downy Brome [5])	inhibition at 280.212 g/ha (Cocklebur [6])	inhibition at 280.212 g/ha (Birdseye Speedwell [7])	inhibition at 280.212 g/ha (Seedling Johnsongrass [8])	inhibition at 280.212 g/ha (Soybean)	inhibition at 280.212 g/ha (Blackgrass [9])	inhibition at 280.212 g/ha (Corn [10])	inhibition at 280.212 g/ha (Wild Oats [11])	inhibition at 280.212 g/ha (Common Chickweed [12])	inhibition at 280.212 g/ha (Velvetleaf [13])	inhibition at 280.212 g/ha (Bedstraw Catchweed [14])	inhibition at 280.212 g/ha (Rape [15])	inhibition at 280.212 g/ha (Wheat [16])	% plant inhibition (Giant Foxtail [17])	inhibition at 280.212 g/ha (Giant Foxtail [17])	inhibition at 280.212 g/ha (Barnyardgrass [18])	further results
CCOC(=O)c1cc(-c2nn(C)c(C(F)(F)F)c2C)c(F)cc1Cl [Compound 26, 2-chloro-5-[1,4-dimethyl-5-(trifluoromethyl)-1H-pyrazol-3-yl]-4-fluorobenzoic acid ethyl ester]	45%	95%	60%	50%	45%	85%	85%	50%	75%	35%	25%	35%	85%	99%	60%	60%	17%	100%	99%	100%	inhibition at 280.212 g/ha (Green Foxtail [19]): 100%; % plant inhibition (Morning Glory [20]): 97% and 98%; inhibition at 280.212 g/ha (Morning Glory [20]; Ipomoea, pre-emergence, read-out: % plant inhibition): 90%; inhibition at 280.212 g/ha (Downy Brome [21]): 55%; % plant inhibition (Cocklebur [22]): 93% and 92%; inhibition at 280.212 g/ha (Cocklebur [22]): 85%; inhibition at 280.212 g/ha (Birdseye Speedwell [23]): 100%; inhibition at 280.212 g/ha (Seedling Johnsongrass [24]): 100%; inhibition at 280.212 g/ha (Blackgrass [25]): 95%; inhibition at 280.212 g/ha (Wild Oats [26]): 65%; inhibition at 280.212 g/ha (Common Chickweed [27]): 100%; inhibition at 280.212 g/ha (Velvetleaf [28]): 100%; inhibition at 280.212 g/ha (Bedstraw Catchweed [29]): 50%; inhibition at 280.212 g/ha (Rape [30]): 40%; inhibition at 280.212 g/ha (Wheat [31]): 0%
COC(=O)c1cc(-c2nn(C)c(C(F)(F)F)c2C)c(F)cc1Cl [Compound 18]	5%	5%	20%	50%	25%	65%	60%	35%	40%	20%	15%	20%	35%	90%	65%	15%	7%	100% and 99%	95%	95%	% plant inhibition (Barnyardgrass [18]): 99% and 93%; inhibition at 280.212 g/ha (Green Foxtail [19]): 100%; inhibition at 280.212 g/ha (Downy Brome [21]): 85%; inhibition at 280.212 g/ha (Birdseye Speedwell [23]): 100%; % plant inhibition (Seedling Johnsongrass [24]): 95% and 85%; inhibition at 280.212 g/ha (Seedling Johnsongrass [24]): 90%; inhibition at 280.212 g/ha (Blackgrass [25]): 95%; inhibition at 280.212 g/ha (Corn [32]): 15%; inhibition at 280.212 g/ha (Wild Oats [26]): 80%; inhibition at 280.212 g/ha (Common Chickweed [27]): 100%; % plant inhibition (Velvetleaf [28]): 100%; inhibition at 280.212 g/ha (Velvetleaf [28]): 98%; inhibition at 280.212 g/ha (Bedstraw Catchweed [29]): 100%; inhibition at 280.212 g/ha (Rape [30]): 100%; inhibition at 280.212 g/ha (Wheat [31]): 0%
CCCOC(=O)c1cc(-c2nn(C)c(C(F)(F)F)c2C)c(F)cc1Cl [Compound 19]	65%	65%	20%	35%	25%	75%	55%	50%	50%	20%	20%	20%	50%	90%	60%	15%	10%	100%	99%	98%	% plant inhibition (Barnyardgrass [18]): 95%; inhibition at 280.212 g/ha (Green Foxtail [19]): 100%; inhibition at 280.212 g/ha (Downy Brome [21]): 40%; % plant inhibition (Cocklebur [22]): 70%; inhibition at 280.212 g/ha (Cocklebur [22]): 60%; inhibition at 280.212 g/ha (Birdseye Speedwell [23]): 100%; % plant inhibition (Seedling Johnsongrass [24]): 85%; inhibition at 280.212 g/ha (Seedling Johnsongrass [24]): 95%; inhibition at 280.212 g/ha (Blackgrass [25]): 95%; % plant inhibition (Corn [32]): 28%; inhibition at 280.212 g/ha (Corn [32]): 25%; inhibition at 280.212 g/ha (Wild Oats [26]): 75%; inhibition at 280.212 g/ha (Common Chickweed [27]): 100%; % plant inhibition (Velvetleaf [28]): 98%; inhibition at 280.212 g/ha (Velvetleaf [28]): 90%; inhibition at 280.212 g/ha (Bedstraw Catchweed [29]): 80%; inhibition at 280.212 g/ha (Rape [30]): 50%; inhibition at 280.212 g/ha (Wheat [31]): 0%
